Experimental data: patent US20180071261A1, “CYCLOCREATINE MICROSUSPENSION” (Lumos Pharma, Inc., priority 2015, published 2018)
Converted amounts (≈) assume the structure as drawn.

Legend:
Type in all cases: physicochemical
[1] = Particle size analysis before and after milling; settings: for Particle size: 200 mg/mL, 1.0 mm zirconia beads, 3344 rpm
Excerpt: To a milling vessel size of 0.6 liter of a Glen Dyno Mill about 70% volume of zirconia grinding media was charged. An agitator shaft activated the media, creating shearing and impacting forces. The rotation of the agitator imparted energy to the surrounding media and fractures the cyclocreatine solids suspended in water, resulting in overall reduction in particle size.
Water was charged into a stainless steel vessel equipped with overhead agitator and blanketed with nitrogen followed by the addition of cyclocreatine. The mixture was pumped via a peristaltic pump into the grinding chamber. The milled sample exiting the chamber was collected in another stainless steel vessel (also equipped with an overhead agitator and blanked with nitrogen) until the first vessel was empty at which time a three way valve was switched as to continue pumping the mixture in one of the vessels into the grinding chamber. The drug concentration in the suspension ranged from 10-20% w/v. […] The rotation of the disk accelerated the milling media radially. The suspension mixture flowed axially through the milling chamber where the shear forces generated during impaction of the milling media with the solid particles provided the energy input to fracture the drug into nanometer-sized particles. Up to 40% nanoparticles were observed. In another embodiment, up to about 10% nanoparticles by volume were observed. The temperature inside the grinding chamber was controlled by circulating coolant through the outer jacket. The resultant microsuspension had good flow characteristics and appeared milky (FIG. 2).
For example a 200 mg/mL solid concentration of formulation processed in a 0.6 liter sized grinding chamber filled with 1.0 mm diameter zirconia beads and a 3344 rpm agitator speed for a total of two hours produced samples with similar final particle size in three repeated experiments. In all instances, the particle size decreased markedly within 30 min processing time from the initial 400 μm to about 80 μm, but with little change observed between 30 and 120 min. Further prolonging in the milling times was not beneficial, because decreased particle sizes were not achieved. In addition to particle size analysis (FIG. 3), the SEM micrographs (FIG. 4) further confirmed that the milling process as effective in converting the original cyclocreatine particles into the low micron range.
(§1) The cyclocreatine samples were analyzed before and after milling (Example 1) to assess the effect of milling on the drug stability.

[2] = Stability test: cyclocreatine concentration in suspension formulation over 40 days; settings: suspension in water (~200 mg/mL)
[3] = Solubility of cyclocreatine in water
Method: The collected micronized API was then formulated with water to form an aqueous microsuspension. 20.0 grams of cyclocreatine was weighed into a graduated vessel. Approximately 80 mL of water was added and the solution mixed to allow partial dissolution. After mixing for 5 minutes, water was added to dilute to a final volume of 100 mL.

[4] = Drug stability: cyclocreatine degradation after milling
Method: as §1
After milling for about 45 min, the particle size of the micronized API appeared to have been reduced uniformly for the entire batch of sample.

[5] = by process condition (un-milled vs wet bead mill)

Structure (SMILES): NC1=NCCN1CC(=O)O [Cyclocreatine, cyclocreatine]
- Nanoparticles observed ([1]; after wet bead milling): Up to 40%
- Nanoparticles by volume observed ([1]; after wet bead milling, another embodiment, by volume): up to 10%
- Particle Size (μm, Volume weighted average) [1, 5]: 400 μm
- Particle size ([1]; initial, before wet milling): 400 μm
- Particle size ([1]; within 30 min processing time): about 80 μm
- Cyclocreatine concentration in the suspension sample ([2]; day 0): 177.1 ± 0.5 mg/g
- Cyclocreatine concentration in the suspension sample ([2]; day 7): 174.6 ± 1.0 mg/g
- Cyclocreatine concentration in the suspension sample ([2]; day 11): 175.7 ± 1.0 mg/g
- Cyclocreatine concentration in the suspension sample ([2]; day 26): 176.9 ± 0.5 mg/g
- Cyclocreatine concentration in the suspension sample ([2]; day 40): 180.1 ± 1.5 mg/g
- solubility [3]: 17 mg/mL (≈ 119 mM)
- Cyclocreatine degradation after milling process (%) [4, 5]: 0%
- Stability during the milling process ([4]; dry milling (pin mill), about 45 min): stable
